Measurements as given in PubChem BioAssay (NCI).
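Grown in 96-well plates, cells were treated for 48 hours with each compound at five concentrations. Insufficient inhibition: endpoint recorded as highest concentration tested. GI50 = concentration required for 50% inhibition of growth. TGI: total growth inhibition.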

Experiments:
Experiment in all cases: inhibition of tumour cell growth, NCI panel, 48 h
786-0 renal = system: 786-0 renal
A498 renal = system: A498 renal
A549 NSCLC = system: A549 NSCLC
ACHN renal = system: ACHN renal
BT-549 breast = system: BT-549 breast
CAKI-1 renal = system: CAKI-1 renal
COLO 205 colon = system: COLO 205 colon
DU-145 prostate = system: DU-145 prostate
EKVX NSCLC = system: EKVX NSCLC
HCC-2998 colon = system: HCC-2998 colon
HCT-116 colon = system: HCT-116 colon
HCT-15 colon = system: HCT-15 colon
HL-60(TB) leukemia = system: HL-60(TB) leukemia
HOP-62 NSCLC = system: HOP-62 NSCLC
HOP-92 NSCLC = system: HOP-92 NSCLC
HS 578T breast = system: HS 578T breast
HT29 colon = system: HT29 colon
IGROV1 ovarian = system: IGROV1 ovarian
K-562 leukemia = system: K-562 leukemia
KM12 colon = system: KM12 colon
LOX IMVI melanoma = system: LOX IMVI melanoma
M14 melanoma = system: M14 melanoma
MALME-3M melanoma = system: MALME-3M melanoma
MCF7 breast = system: MCF7 breast
MDA-MB-231 breast = system: MDA-MB-231 breast
MDA-MB-435 = system: MDA-MB-435
MOLT-4 leukemia = system: MOLT-4 leukemia
NCI-H226 lung = system: NCI-H226 lung
NCI-H23 lung = system: NCI-H23 lung
NCI-H460 lung = system: NCI-H460 lung
NCI-H522 lung = system: NCI-H522 lung
NCI/ADR-RES ovarian = system: NCI/ADR-RES ovarian
OVCAR-3 ovarian = system: OVCAR-3 ovarian
OVCAR-4 ovarian = system: OVCAR-4 ovarian
OVCAR-5 ovarian = system: OVCAR-5 ovarian
OVCAR-8 ovarian = system: OVCAR-8 ovarian
PC-3 prostate = system: PC-3 prostate
RPMI-8226 leukemia = system: RPMI-8226 leukemia
RXF 393 renal = system: RXF 393 renal
SF-268 CNS = system: SF-268 CNS
SF-295 CNS = system: SF-295 CNS
SF-539 CNS = system: SF-539 CNS
SK-MEL-2 melanoma = system: SK-MEL-2 melanoma
SK-MEL-28 melanoma = system: SK-MEL-28 melanoma
SK-MEL-5 melanoma = system: SK-MEL-5 melanoma
SK-OV-3 ovarian = system: SK-OV-3 ovarian
SN12C renal = system: SN12C renal
SNB-19 CNS = system: SNB-19 CNS
SNB-75 CNS = system: SNB-75 CNS
SR leukemia = system: SR leukemia
SW-620 colon = system: SW-620 colon
T-47D breast = system: T-47D breast
TK-10 renal = system: TK-10 renal
U251 CNS = system: U251 CNS
UACC-257 melanoma = system: UACC-257 melanoma
UACC-62 melanoma = system: UACC-62 melanoma
UO-31 renal = system: UO-31 renal

Compound: Cc1cc(I)cc(CN(C)CCCN2CCC(C)CC2)c1O
- GI50 (786-0 renal): 13.4 µM
- TGI (786-0 renal): 26.2 µM
- GI50 (A498 renal): 7.53 µM
- TGI (A498 renal): 21.2 µM
- GI50 (A549 NSCLC): 15.4 µM
- TGI (A549 NSCLC): 29.6 µM
- GI50 (ACHN renal): 16.3 µM
- TGI (ACHN renal): 30.7 µM
- GI50 (BT-549 breast): 11.2 µM
- TGI (BT-549 breast): 23.8 µM
- GI50 (CAKI-1 renal): 13.5 µM
- TGI (CAKI-1 renal): 28.7 µM
- GI50 (COLO 205 colon): 13.4 µM
- TGI (COLO 205 colon): 28 µM
- GI50 (DU-145 prostate): 15.5 µM
- TGI (DU-145 prostate): 28.8 µM
- GI50 (EKVX NSCLC): 14.2 µM
- TGI (EKVX NSCLC): 31 µM
- GI50 (HCC-2998 colon): 12.4 µM
- TGI (HCC-2998 colon): 25.4 µM
- GI50 (HCT-116 colon): 10.4 µM
- TGI (HCT-116 colon): 22.1 µM
- GI50 (HCT-15 colon): 12.1 µM
- TGI (HCT-15 colon): 26.7 µM
- GI50 (HL-60(TB) leukemia): 12.5 µM
- TGI (HL-60(TB) leukemia): 31.6 µM
- GI50 (HOP-62 NSCLC): 14.1 µM
- TGI (HOP-62 NSCLC): 27.2 µM
- GI50 (HOP-92 NSCLC): 6.62 µM
- TGI (HOP-92 NSCLC): 21.5 µM
- GI50 (HS 578T breast): 12.1 µM
- TGI (HS 578T breast): 26.2 µM
- GI50 (HT29 colon): 9.02 µM
- TGI (HT29 colon): 21.3 µM
- GI50 (IGROV1 ovarian): 13.6 µM
- TGI (IGROV1 ovarian): 29.1 µM
- GI50 (K-562 leukemia): 10.9 µM
- TGI (K-562 leukemia): 35.7 µM
- GI50 (KM12 colon): 13.1 µM
- TGI (KM12 colon): 27.9 µM
- GI50 (LOX IMVI melanoma): 15.5 µM
- TGI (LOX IMVI melanoma): 31.4 µM
- GI50 (M14 melanoma): 13.7 µM
- TGI (M14 melanoma): 26.8 µM
- GI50 (MALME-3M melanoma): 16.9 µM
- TGI (MALME-3M melanoma): 33 µM
- GI50 (MCF7 breast): 14.2 µM
- TGI (MCF7 breast): 28.2 µM
- GI50 (MDA-MB-231 breast): 15.1 µM
- TGI (MDA-MB-231 breast): 32 µM
- GI50 (MDA-MB-435): 11.6 µM
- TGI (MDA-MB-435): 25 µM
- GI50 (MOLT-4 leukemia): 10 µM
- TGI (MOLT-4 leukemia): 26.4 µM
- GI50 (NCI-H226 lung): 17.2 µM
- TGI (NCI-H226 lung): 39.1 µM
- GI50 (NCI-H23 lung): 15.4 µM
- TGI (NCI-H23 lung): 33.7 µM
- GI50 (NCI-H460 lung): 12.5 µM
- TGI (NCI-H460 lung): 25 µM
- GI50 (NCI-H522 lung): 16.4 µM
- TGI (NCI-H522 lung): 32.2 µM
- GI50 (NCI/ADR-RES ovarian): 14.3 µM
- TGI (NCI/ADR-RES ovarian): 31 µM
- GI50 (OVCAR-3 ovarian): 13.7 µM
- TGI (OVCAR-3 ovarian): 28.1 µM
- GI50 (OVCAR-4 ovarian): 13.1 µM
- TGI (OVCAR-4 ovarian): 31.7 µM
- GI50 (OVCAR-5 ovarian): 15.6 µM
- TGI (OVCAR-5 ovarian): 34.4 µM
- GI50 (OVCAR-8 ovarian): 16.7 µM
- TGI (OVCAR-8 ovarian): 33.5 µM
- GI50 (PC-3 prostate): 14.1 µM
- TGI (PC-3 prostate): 29.7 µM
- GI50 (RPMI-8226 leukemia): 12.6 µM
- TGI (RPMI-8226 leukemia): 32 µM
- GI50 (RXF 393 renal): 10.5 µM
- TGI (RXF 393 renal): 23.5 µM
- GI50 (SF-268 CNS): 14.6 µM
- TGI (SF-268 CNS): 27.7 µM
- GI50 (SF-295 CNS): 14.5 µM
- TGI (SF-295 CNS): 29.3 µM
- GI50 (SF-539 CNS): 14 µM
- TGI (SF-539 CNS): 27.5 µM
- GI50 (SK-MEL-2 melanoma): 17.4 µM
- TGI (SK-MEL-2 melanoma): 33.9 µM
- GI50 (SK-MEL-28 melanoma): 12.1 µM
- TGI (SK-MEL-28 melanoma): 24.5 µM
- GI50 (SK-MEL-5 melanoma): 4.98 µM
- TGI (SK-MEL-5 melanoma): 17.2 µM
- GI50 (SK-OV-3 ovarian): 15.9 µM
- TGI (SK-OV-3 ovarian): 31.1 µM
- GI50 (SN12C renal): 24 µM
- TGI (SN12C renal): 93.4 µM
- GI50 (SNB-19 CNS): 16.4 µM
- TGI (SNB-19 CNS): 34 µM
- GI50 (SNB-75 CNS): 11 µM
- TGI (SNB-75 CNS): 23 µM
- GI50 (SR leukemia): 11.5 µM
- TGI (SR leukemia): 32.2 µM
- GI50 (SW-620 colon): 13.6 µM
- TGI (SW-620 colon): 26.6 µM
- GI50 (T-47D breast): 15.8 µM
- TGI (T-47D breast): 40.7 µM
- GI50 (TK-10 renal): 14.7 µM
- TGI (TK-10 renal): 29.2 µM
- GI50 (U251 CNS): 15.2 µM
- TGI (U251 CNS): 29.8 µM
- GI50 (UACC-257 melanoma): 11.8 µM
- TGI (UACC-257 melanoma): 25.3 µM
- GI50 (UACC-62 melanoma): 14.2 µM
- TGI (UACC-62 melanoma): 30.4 µM
- GI50 (UO-31 renal): 11.4 µM
- TGI (UO-31 renal): 24.8 µM
